Data on 1 compound can be found in publication PMC10515631, “Mapping the Initial Stages of a Protective Pathway that Enhances Catalytic Turnover by a Lytic Polysaccharide Monooxygenase” (Journal of the American Chemical Society, 2023).

Holding throughout (test): stopped-flow UV-vis
What all share (assay type): biochemical
Conditions in all cases: oxidant reacting with Cu(I) enzyme, no polysaccharide substrate; 100 uM enzyme, 500 uM oxidant

One assay concerns the target T1, CvAA9 (Achaetomiella virescens, UniProt A0A223GEC9).
T1 construct: gene AA9A; mature secreted AA9 LPMO, Cu(I) form; host and construct only in supplement

The target in another assay is T2, TaAA9 (Thermoascus aurantiacus, UniProt G3XAP7).
T2 construct: gene LPMO9A; mature secreted AA9 LPMO, Cu(I) form; host and construct only in supplement

A further assay deals with T3, LsAA9 (Panus similis, UniProt A0A0S2GKZ1).
T3 construct: gene LPMO9A; mature secreted AA9 LPMO, Cu(I) form; expressed in Escherichia coli (fungal host also compared); details in supplement
T3 sequence (A0A0S2GKZ1 20-254): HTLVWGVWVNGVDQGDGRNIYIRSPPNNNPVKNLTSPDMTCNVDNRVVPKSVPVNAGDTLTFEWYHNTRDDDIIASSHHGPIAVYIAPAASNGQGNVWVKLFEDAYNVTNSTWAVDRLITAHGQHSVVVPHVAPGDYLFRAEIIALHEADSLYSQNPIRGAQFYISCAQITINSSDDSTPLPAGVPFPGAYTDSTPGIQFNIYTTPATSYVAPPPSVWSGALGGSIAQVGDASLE

T1 sequence (A0A223GEC9 23-274): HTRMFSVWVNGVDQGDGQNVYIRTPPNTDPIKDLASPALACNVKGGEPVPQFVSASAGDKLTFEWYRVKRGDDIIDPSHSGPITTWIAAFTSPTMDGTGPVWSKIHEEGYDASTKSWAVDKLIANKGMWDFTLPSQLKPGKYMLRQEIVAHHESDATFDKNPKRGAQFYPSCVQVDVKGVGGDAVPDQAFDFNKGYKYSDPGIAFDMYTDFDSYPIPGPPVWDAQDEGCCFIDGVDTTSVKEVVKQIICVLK
T2 sequence (G3XAP7 whole entry): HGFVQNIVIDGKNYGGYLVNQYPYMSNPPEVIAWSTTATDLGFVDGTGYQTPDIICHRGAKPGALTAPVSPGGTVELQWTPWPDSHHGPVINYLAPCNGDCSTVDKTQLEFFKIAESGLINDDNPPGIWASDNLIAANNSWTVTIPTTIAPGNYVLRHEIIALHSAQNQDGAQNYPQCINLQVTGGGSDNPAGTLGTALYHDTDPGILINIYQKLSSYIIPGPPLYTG

As to `O=C(OO)c1cccc(Cl)c1` [m-CPBA, meta-chloro-perbenzoic acid], the “stopped-flow UV-vis” value at CvAA9 was “transient intermediates generated upon oxidation of CuI–TaAA9, CvAA9, and LsAA9 with mCPBA”; at TaAA9 it was “transient intermediates generated upon oxidation of CuI–TaAA9, CvAA9, and LsAA9 with mCPBA”; at LsAA9 it was “transient intermediates generated upon oxidation of CuI–TaAA9, CvAA9, and LsAA9 with mCPBA”.
